{
  "source": "patent US11661440B2",
  "about": "(priority 2015, dated 2023)",
  "key": {"NMDA receptor": {"test_system": "NMDA receptor", "format": "cell-based, rat"}, "[1]": {"biological_target": "GluN2B recombinant subunit (Rattus norvegicus, UniProt Q00960)", "sequence (Q00960 27-1482, other chains not shown)": "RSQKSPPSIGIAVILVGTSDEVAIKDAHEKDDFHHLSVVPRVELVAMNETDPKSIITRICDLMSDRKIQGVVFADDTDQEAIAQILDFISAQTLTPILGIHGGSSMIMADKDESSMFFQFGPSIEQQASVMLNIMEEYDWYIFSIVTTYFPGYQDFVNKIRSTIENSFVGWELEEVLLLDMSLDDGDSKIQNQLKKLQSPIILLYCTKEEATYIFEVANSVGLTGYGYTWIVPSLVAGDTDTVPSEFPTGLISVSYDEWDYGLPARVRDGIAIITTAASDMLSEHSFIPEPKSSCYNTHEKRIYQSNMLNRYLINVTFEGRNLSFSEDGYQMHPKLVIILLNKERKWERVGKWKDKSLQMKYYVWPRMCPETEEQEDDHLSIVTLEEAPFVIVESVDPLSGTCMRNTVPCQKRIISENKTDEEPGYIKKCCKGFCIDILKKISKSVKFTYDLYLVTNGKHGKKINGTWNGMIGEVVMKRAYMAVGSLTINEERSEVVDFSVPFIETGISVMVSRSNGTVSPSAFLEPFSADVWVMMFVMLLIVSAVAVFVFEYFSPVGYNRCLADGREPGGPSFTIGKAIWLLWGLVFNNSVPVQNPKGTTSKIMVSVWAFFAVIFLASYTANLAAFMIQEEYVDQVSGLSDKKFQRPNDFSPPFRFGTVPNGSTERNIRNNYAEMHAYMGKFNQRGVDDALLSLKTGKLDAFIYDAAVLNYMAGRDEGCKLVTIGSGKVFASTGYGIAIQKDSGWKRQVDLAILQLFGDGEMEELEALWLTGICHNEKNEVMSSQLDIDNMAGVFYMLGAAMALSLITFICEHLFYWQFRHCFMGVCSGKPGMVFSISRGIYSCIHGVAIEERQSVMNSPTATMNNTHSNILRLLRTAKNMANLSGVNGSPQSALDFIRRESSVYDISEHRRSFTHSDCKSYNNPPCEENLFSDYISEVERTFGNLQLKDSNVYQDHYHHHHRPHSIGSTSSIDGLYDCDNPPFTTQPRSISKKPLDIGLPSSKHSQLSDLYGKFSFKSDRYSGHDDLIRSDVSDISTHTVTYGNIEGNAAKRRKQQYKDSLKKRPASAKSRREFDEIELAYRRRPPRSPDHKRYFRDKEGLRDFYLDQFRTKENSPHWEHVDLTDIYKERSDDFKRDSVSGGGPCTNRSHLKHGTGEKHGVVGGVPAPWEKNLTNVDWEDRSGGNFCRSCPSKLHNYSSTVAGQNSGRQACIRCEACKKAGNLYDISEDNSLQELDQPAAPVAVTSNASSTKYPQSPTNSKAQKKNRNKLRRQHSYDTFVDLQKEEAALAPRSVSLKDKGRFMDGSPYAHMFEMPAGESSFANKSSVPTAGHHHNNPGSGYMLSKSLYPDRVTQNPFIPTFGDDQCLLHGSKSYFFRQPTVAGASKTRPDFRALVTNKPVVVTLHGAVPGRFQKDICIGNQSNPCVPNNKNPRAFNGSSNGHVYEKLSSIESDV", "details": "cited from earlier work"}, "[2]": {"biological_target": "NMDA receptor GluN2B subunit (Mus musculus, UniProt Q01097)", "sequence (Q01097 whole entry, looked up)": "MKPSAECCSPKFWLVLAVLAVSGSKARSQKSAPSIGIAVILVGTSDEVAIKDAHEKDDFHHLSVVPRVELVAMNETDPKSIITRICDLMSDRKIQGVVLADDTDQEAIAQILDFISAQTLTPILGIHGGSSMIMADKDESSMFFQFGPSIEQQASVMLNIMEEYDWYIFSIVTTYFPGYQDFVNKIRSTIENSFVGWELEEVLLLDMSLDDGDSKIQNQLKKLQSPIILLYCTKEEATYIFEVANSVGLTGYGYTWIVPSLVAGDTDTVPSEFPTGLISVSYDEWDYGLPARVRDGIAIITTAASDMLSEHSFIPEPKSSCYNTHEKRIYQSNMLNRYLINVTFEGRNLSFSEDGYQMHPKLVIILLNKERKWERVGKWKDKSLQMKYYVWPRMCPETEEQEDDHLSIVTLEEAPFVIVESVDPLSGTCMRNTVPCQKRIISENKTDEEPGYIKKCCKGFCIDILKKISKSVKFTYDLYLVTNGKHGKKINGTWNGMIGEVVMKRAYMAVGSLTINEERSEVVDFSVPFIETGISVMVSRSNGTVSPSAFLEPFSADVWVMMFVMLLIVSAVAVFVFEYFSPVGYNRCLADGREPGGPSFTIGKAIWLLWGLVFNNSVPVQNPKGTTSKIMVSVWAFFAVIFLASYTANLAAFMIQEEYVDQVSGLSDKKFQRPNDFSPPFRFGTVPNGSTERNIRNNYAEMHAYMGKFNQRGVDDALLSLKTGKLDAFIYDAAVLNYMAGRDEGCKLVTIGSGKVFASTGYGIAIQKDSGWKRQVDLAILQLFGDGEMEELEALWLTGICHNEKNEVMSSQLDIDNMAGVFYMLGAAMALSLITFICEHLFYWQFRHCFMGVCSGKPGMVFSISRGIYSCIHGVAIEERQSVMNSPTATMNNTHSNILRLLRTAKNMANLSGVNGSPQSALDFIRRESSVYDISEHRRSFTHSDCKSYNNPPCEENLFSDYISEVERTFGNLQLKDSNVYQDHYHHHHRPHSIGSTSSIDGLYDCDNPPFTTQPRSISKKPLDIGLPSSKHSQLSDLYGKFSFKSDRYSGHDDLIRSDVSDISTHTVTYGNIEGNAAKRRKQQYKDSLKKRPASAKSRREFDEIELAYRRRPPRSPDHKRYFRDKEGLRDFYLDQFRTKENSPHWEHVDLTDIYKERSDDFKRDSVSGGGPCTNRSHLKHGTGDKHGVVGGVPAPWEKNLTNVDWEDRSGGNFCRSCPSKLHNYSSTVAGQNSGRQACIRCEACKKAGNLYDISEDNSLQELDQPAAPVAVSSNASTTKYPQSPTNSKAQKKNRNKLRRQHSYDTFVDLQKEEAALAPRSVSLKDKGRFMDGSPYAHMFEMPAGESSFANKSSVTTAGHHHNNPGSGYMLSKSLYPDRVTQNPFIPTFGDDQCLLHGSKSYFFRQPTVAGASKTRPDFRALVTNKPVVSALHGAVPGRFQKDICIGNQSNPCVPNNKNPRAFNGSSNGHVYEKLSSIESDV", "details": "cited from earlier work"}},
  "note": "pIC50: −log10 of the molar value. “Also recorded” adds a separate entry of the source. Ends that are not written are not given here.",
  "data": [
    {"compound": "C[C@]12N[C@H](Cc3ccccc31)c1ccccc12", "note": "[(+)-MK-801, dizocilpine]", "values": [
      {"measurement": "blocking of input current due to stimulation by peptide SEQ ID NO: 4", "setting": "NMDA receptor", "result": "more than 90%"},
      {"measurement": "blocking of the response (in words)", "setting": "NMDA receptor", "result": "almost total blocking of the response"},
      {"measurement": "reduction in the response obtained by stimulation with NMDA/glycine", "setting": "NMDA receptor", "result": "more than 50%"}
    ]},
    {"compound": "C[C@@H](CN1CCC(Cc2ccccc2)CC1)[C@@H](O)c1ccc(O)cc1", "note": "[Ro 25-9681]", "values": [
      {"measurement": "blocking of the response evoked by NMDA/glycine", "setting": "NMDA receptor", "result": "less than 50%"},
      {"measurement": "pIC50", "setting": "[1]", "result": 8.05}
    ]},
    {"compound": "GEγγLQγNQγLIRγKSN-NH2 [conantokin-G]", "values": [
      {"measurement": "pIC50", "setting": "[2]", "result": 6.30},
      {"measurement": "pIC50", "setting": "[1]", "result": 7.00}
    ]},
    {"compound": "KLGMRSELQIDNDQDAD [SEQ ID NO: 4]", "values": [
      {"measurement": "agonist effect: input current evoked by the peptide (in words)", "setting": "NMDA receptor", "result": "evoked input current via the NMDA receptor; also recorded: an input current was found"}
    ]}
  ]
}
